Experimental data from patent US12297296B2, “Nano small peptide and its use in preparation of drugs for treating and preventing fundus vascular diseases” (FUTU Biotech Co., Ltd., priority 2021, dated 2025).
Where a SMILES comes first, the peptide text is derived from it. [ ]: non-standard residue; d: D form. The star is where a group is joined. ξ: configuration not given here. Palmitoyl = CCCCCCCCCCCCCCCC(=O)*; ξF = NC(Cc1ccccc1)C(=O)O

Experiments:
[1] = In vivo imaging of small animals, entry into vitreous humor; set-up: species or system mouse; details: eye drops (10 μL, 20 μM, three times at 1 h intervals) and vitreous injection (1 μl, 20 μM)
Procedure: 10 μL of FH and FG eye drops (with the concentration of 20 μM, the solvent therein was artificial tears) were instilled on the eyeball surface of mice (8-week-old C57 male mice), once at an interval of 1 h. One hour after the third eye drop, the mice were anesthetized to have cardiac perfusion, the eyeballs of the mice were taken out, the connective tissue on the eye surface was trimmed, and the eyeballs were washed with PBS solution for several times to remove the nano eye drops from the surface of the eyeballs. The eyeball was placed in a small animal imager (at emission wavelength of 535 nm and excitation wavelength of 490 nm) for image acquisition.
Mice (8-week-old C57 male mice) were anesthetized with 4.3% chloral hydrate (0.01 ml/g), and antibiotic eye drops (levofloxacin eye drops), ocular surface anesthetics (Obucaine hydrochloride eye drops) were instilled before the surgery. The head position of the mouse was adjusted to keep the eyeball at the level of the corneal limbus. A small incision was made 1 mm behind the corneal limbus with an insulin injection needle, and 1 μl of nanomedicine FH (20 μM, FG (20 μM) or solvent was injected into the vitreous cavity along the small incision with a Hamilton 33 G syringe); the needle tip entered vertically and then tilted, and after pushing, the needle was retained for 0.5 to 1 min, and the needle was then pulled out quickly. […]

sSema4D [2] = target: T1, sSema4D (Mus musculus, UniProt O09126); experiment: sSema4D concentration in endothelial cell culture supernatant (ELISA); type: cell-based; set-up: the free Sema4D protein after enzyme cleavage of Sema4D, that is, the sSema4D protein purchased from R&D Systems Company; purchased R&D Systems; details: endothelial cells; for sSema4D concentration over the time course: 20 μM, 12, 24, 36, and 48 h; for sSema4D concentration: sSema4D 1600 ng/mL, peptide 20 μM, antibody 2 μg/μL
T1 sequence (O09126 24-733 limits assumed): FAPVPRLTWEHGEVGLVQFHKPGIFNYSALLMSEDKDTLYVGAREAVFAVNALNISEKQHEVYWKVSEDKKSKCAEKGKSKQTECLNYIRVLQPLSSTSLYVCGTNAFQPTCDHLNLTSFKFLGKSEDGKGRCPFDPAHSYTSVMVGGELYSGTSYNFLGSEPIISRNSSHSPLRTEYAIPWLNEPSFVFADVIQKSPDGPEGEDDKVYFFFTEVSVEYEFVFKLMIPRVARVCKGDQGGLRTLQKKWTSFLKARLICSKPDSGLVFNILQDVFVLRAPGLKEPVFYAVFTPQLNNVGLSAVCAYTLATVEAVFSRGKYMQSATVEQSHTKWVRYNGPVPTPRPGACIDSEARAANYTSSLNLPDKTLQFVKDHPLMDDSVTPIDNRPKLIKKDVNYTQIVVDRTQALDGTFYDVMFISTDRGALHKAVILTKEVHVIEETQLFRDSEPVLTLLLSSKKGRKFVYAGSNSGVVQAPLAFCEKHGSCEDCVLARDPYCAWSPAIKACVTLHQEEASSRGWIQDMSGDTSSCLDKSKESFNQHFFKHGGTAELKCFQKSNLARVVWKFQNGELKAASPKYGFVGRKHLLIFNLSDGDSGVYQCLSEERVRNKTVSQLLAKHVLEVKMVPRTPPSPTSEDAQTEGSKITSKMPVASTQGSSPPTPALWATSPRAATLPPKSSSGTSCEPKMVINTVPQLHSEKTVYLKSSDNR
Procedure: Endothelial cells were uniformly seeded in 6-well cell culture plates and cultured in a 5% CO2 incubator at 37° C. for 24 h. The nano small peptides FH, FG, DMSO, and Sema4D neutralizing antibody (BMA-12) were added to the medium (the concentration of sSema4D in the medium was 1600 ng/mL) to ensure that the final concentration of FH and FG was 20 μM, and the final concentration of the sSema4D neutralizing antibody (BMA-12) was 2 μg/μL, an equal volume of DMSO was then added as a control, and the culture plates were cultured in an incubator for 12, 24, 36, and 48 h, respectively. The cell culture medium was then collected and centrifuged. The supernatant was taken and the expression of Sema4D protein in the supernatant was detected using an ELISA kit (Shanghai Yuanmu Biotechnology Co., Ltd.).

[3] = test system: primary mouse brain microvascular pericytes; experiment: Pericyte migration (transwell experiment); type: cell-based; details: 20 μM, 36 h; for sSema4D-induced pericyte migration: sSema4D 1600 ng/mL
Procedure: The primary mouse brain microvascular pericytes were starved with 0.5% PM for 4 to 6 h. The pericytes were seeded in the upper layer of a 24-well transwell chamber (8 μm). The medium containing FH (20 μM), FG (20 μM), and Sema4D neutralizing antibody (BMA-12) (2 μg/μL) (the concentration of sSema4D in the medium is 1600 ng/mL) was added to the lower chamber, and an equal volume of DMSO was added as control. The cells were incubated in a 5% CO2 incubator at 37° C. for 36 h. 36 h later, the cells on the bottom of the chamber were fixed with 4% paraformaldehyde and stained with crystal violet, and the pericytes that penetrated to the bottom of the chamber were counted under a microscope.

[4] = test system: mouse brain microvascular endothelial cells; experiment: Endothelial cell leakage (transmembrane resistance); type: cell-based; details: 20 μM, 36 h; for sSema4D-induced endothelial cell leakage: sSema4D 1600 ng/mL
Procedure: A layer of fibronectin was first applied to coat the upper layer of a 24-well transwell chamber (0.4 um) and incubated at room temperature for 1 h; after coating, the mouse brain microvascular endothelial cells were seeded, and cultured for 5 days until the cells were full, and then FH (20 μM), FG (20 μM), and Sema4D neutralizing antibody (BMA-12) (2 μg/μL) were added to the medium (the concentration of sSema4D in the medium was 1600 ng/mL), respectively. An equal volume of DMSO was added as a control, and ECM was used as a blank control. After incubation for 36 h, the resistance value was measured by a cell transmembrane resistance measuring instrument.

[5] = DLS particle size and zeta potential of nanoparticles; type: physicochemical; details: zeta sizer, 25° C.
Procedure: First, FG and FH nanoparticle solutions with a concentration of 20 μM were prepared as follows. 0.01 mmol of FG (or FH) was weighed and dissolved in 1 mL of DMSO solution, and then diluted into 5 folds to a concentration of 2 mM, thus obtaining mother solution A. 10 μL of mother solution A was quickly added to 1 mL of water, and the resulting solution was then vortexed for 30 s to obtain a nanoparticle solution. Second, samples were made. 10 ul of FG (or FH) solution was added dropwise onto a copper mesh for 5 min, and the excess solution was removed with filter paper. 10 μL of uranyl acetate stain was added dropwise for 5 min, and the excess stain was removed with filter paper. Washing with 10 μl of deionized water was carried out once. The samples were dried in vacuum overnight. Finally, transmission electron microscopy observations were performed on an HT-7700 transmission electron microscope (Hitachi, Tokyo, Japan). Scale bar was 200 nm.
The particle size and zeta potential of FH and FG nanoparticles were measured with a zeta sizer (Nano ZZ90, Malvern, UK) at 25° C.

sSema4D [6] = target: T1, sSema4D; experiment: ELISA of sSema4D in vitreous humor after eye drops; type: in vivo; set-up: release and collect the vitreous humor; from tissue; host or cells: vitreous humor of C57 mice; details: C57 mice, 10 μL of 20 μM eye drops, morning and evening, 3 days
From the text: In this example, 8-week-old C57 male mice were used, with ten data points in each group, and each data point was the average of the experimental results of 5 mice.
The water on the eyeballs was then removed with filter paper to release and collect the vitreous humor. ELISA kit (Shanghai Yuanmu Biotechnology Co., Ltd.) was used to detect the expression of sSema4D protein in vitreous humor.
Control group was instilled with the same volume of PBS solution; vehicle group was instilled the same volume of artificial tears (Systane).

[7] = test system: endothelial cells (primary endothelial cells of mouse brain microvessels); experiment: CCK8 cytotoxicity assay; type: cell-based; details: 20 μM; 12, 14, and 36 h

## CCCCCCCCCCCCCCCC(=O)NC(Cc1ccccc1)C(=O)N[C@@H](Cc1ccccc1)C(=O)N[C@H](C(=O)N[C@@H](CC(C)C)C(=O)N[C@@H](CCCCN)C(=O)N[C@@H](CCCCN)C(=O)N[C@@H](CCC(N)=O)C(=O)N[C@@H](CCCCN)C(=O)N[C@@H](CCCNC(=N)N)C(=O)N1CCC[C@H]1C(=O)N[C@@H](CCCNC(=N)N)C(=O)N[C@@H](Cc1c[nH]cn1)C(=O)O)C(C)C (stereo in doubt) [FH, hexadecanoyl-FFVLK-KQKRPRH]
[1]
  entry into the vitreous humor of mice: entered the vitreous humor
sSema4D [2]
  sSema4D concentration over the time course: can sustainably reduce the concentration of sSema4D
sSema4D [2]; 24 h
  sSema4D concentration: can reduce the sSema4D concentration
sSema4D [2]; 36 h
  sSema4D concentration: can still reduce the sSema4D concentration
sSema4D [2]; within the same action time
  effect on sSema4D concentration compared with FG: better than that of FG
[3]
  inhibition of pericyte migration compared with Sema4D neutralizing antibody (BMA-12, 2 μg/μL): more effective
  sSema4D-induced pericyte migration: significantly inhibit
[4]
  effect on endothelial cell leakage compared with Sema4D neutralizing antibody (BMA-12, 2 μg/μL): comparable
  sSema4D-induced endothelial cell leakage: significantly inhibit
[5]
  charge (zeta potential): +40.4 mV
  particle diameter: 54.43±2.8 nm
sSema4D [6]
  expression of sSema4D protein in the vitreous humor: reduce the expression of sSema4D protein in the vitreous humor
[7]
  toxic effects on endothelial cells: did not cause toxic effects

## CCCCCCCCCCCCCCCC(=O)NC(Cc1ccccc1)C(=O)N[C@@H](Cc1ccccc1)C(=O)N[C@H](C(=O)N[C@@H](CC(C)C)C(=O)N[C@@H](CCCCN)C(=O)N[C@@H](CCCCN)C(=O)N[C@@H](CC(N)=O)C(=O)N[C@@H](CCCCN)C(=O)N[C@@H](C)C(=O)N[C@@H](C)C(=O)N[C@@H](CCCCN)C(=O)NCC(=O)O)C(C)C (stereo partly shown) [FG] (Palmitoyl-[ξF]FVLKKNKAAKG-OH)
[1]
  entry into the vitreous humor of mice: entered the vitreous humor
sSema4D [2]
  sSema4D concentration over the time course: can sustainably reduce the concentration of sSema4D
[3]
  sSema4D-induced pericyte migration: significantly inhibit
[4]
  effect on endothelial cell leakage compared with Sema4D neutralizing antibody (BMA-12, 2 μg/μL): comparable
  sSema4D-induced endothelial cell leakage: significantly inhibit
[5]
  charge (zeta potential): +44.8 mV
  particle diameter: 57.67±2.6 nm
sSema4D [6]
  expression of sSema4D protein in the vitreous humor: reduce the expression of sSema4D protein in the vitreous humor
[7]
  toxic effects on endothelial cells: did not cause toxic effects
